# What was measured:
# Assay type in all cases: in vivo
# [1] = tested on: Oryza sativa; experiment: Crop compatibility post-emergence, greenhouse pot test
# Procedure: (§1) Seeds of mono- and dicotyledonous weed plants and crop plants were laid out in sandy loam soil in plastic or wood-fiber pots, covered with soil and grown under controlled growth conditions in a greenhouse. 2 to 3 weeks after sowing, the trial plants were treated at the one-leaf stage. The compounds of the invention formulated in the form of wettable powders (WP) or as emulsion concentrates (EC) were then sprayed onto the green parts of the plant as an aqueous suspension or emulsion with addition of 0.5% additive at a water application rate equivalent to 600 L/ha. After the trial plants had stood for about 3 weeks in the greenhouse, under optimal growth conditions, the effect of the preparations was scored visually by comparison with untreated controls. For example, 100% efficacy=plants have died, 0% efficacy=like control plants.
# (§2) Crop plant compatibilities were also scored correspondingly.
# (§3) The effects observed are reported here on selected crop plants by comparison, with the untreated controls (values in %).
# [2] = tested on: Triticum aestivum; experiment: as above
# Procedure: as §1, §2, §3
# [3] = tested on: Zea mays; experiment: as above
# Procedure: as §1, §2, §3
# [4] = tested on: Viola tricolor; experiment: Herbicidal action post-emergence, greenhouse pot test; details: application rate 20 g/ha
# Procedure: as §1, with “plants. Tables A1 to A16 below show the efficacies of selected compounds of the general formula (I) according to tables I.1 to I.50 on various harmful plants and an application rate corresponding to 80 g/ha or lower that were obtained by the aforementioned trial method.” for “plants.”
# [5] = tested on: Veronica persica; experiment: as above; details: application rate 20 g/ha
# Procedure: as §1, with “plants. Tables A1 to A16 below show the efficacies of selected compounds of the general formula (I) according to tables I.1 to I.50 on various harmful plants and an application rate corresponding to 80 g/ha or lower that were obtained by the aforementioned trial method.” for “plants.”
# [6] = tested on: Amaranthus retroflexus; experiment: as above; details: application rate 20 g/ha
# Procedure: as §1, with “plants. Tables A1 to A16 below show the efficacies of selected compounds of the general formula (I) according to tables I.1 to I.50 on various harmful plants and an application rate corresponding to 80 g/ha or lower that were obtained by the aforementioned trial method.” for “plants.”
# [7] = tested on: Abutilon theophrasti; experiment: as above; details: application rate 20 g/ha
# Procedure: as §1, with “plants. Tables A1 to A16 below show the efficacies of selected compounds of the general formula (I) according to tables I.1 to I.50 on various harmful plants and an application rate corresponding to 80 g/ha or lower that were obtained by the aforementioned trial method.” for “plants.”
# [8] = tested on: Lolium rigidum; experiment: Herbicidal action pre-emergence, greenhouse pot test; details: application rate 320 g/ha
# Excerpt: Seeds of mono- and dicotyledonous weeds and crop plants were laid out in plastic or organic plant pots and covered with soil. The compounds of the invention formulated in the form of wettable powders (WP) or as emulsion concentrates (EC) were then applied to the surface of the covering soil as an aqueous suspension or emulsion with addition of 0.5% additive at a water application rate equivalent to 600 L/ha. After the treatment, the pots were placed in a greenhouse and kept under good growth conditions for the test plants. After about 3 weeks, the efficacy of the preparations was scored visually as a percentage by comparison with untreated controls. For example, 100% efficacy=plants have died. 0% efficacy=like control plants. Tables B1 to B17 below show the efficacies of selected compounds of the general formula (I) according to tables I.1 to I.50 on various harmful plants and an application rate corresponding to 320 g/ha or lower that were obtained by the aforementioned trial method.
# [9] = tested on: Digitaria sanguinalis; experiment: Herbicidal action post-emergence, greenhouse pot test; details: application rate 20 g/ha
# [10] = tested on: Polygonum convolvulus; experiment: as above; details: application rate 20 g/ha
# Procedure: as §1, with “plants. Tables A1 to A16 below show the efficacies of selected compounds of the general formula (I) according to tables I.1 to I.50 on various harmful plants and an application rate corresponding to 80 g/ha or lower that were obtained by the aforementioned trial method.” for “plants.”
# [11] = tested on: Stellaria media; experiment: as above; details: application rate 20 g/ha
# Procedure: as §1, with “plants. Tables A1 to A16 below show the efficacies of selected compounds of the general formula (I) according to tables I.1 to I.50 on various harmful plants and an application rate corresponding to 80 g/ha or lower that were obtained by the aforementioned trial method.” for “plants.”
# [12] = tested on: Pharbitis purpurea; experiment: as above; details: application rate 20 g/ha
# Procedure: as §1, with “plants. Tables A1 to A16 below show the efficacies of selected compounds of the general formula (I) according to tables I.1 to I.50 on various harmful plants and an application rate corresponding to 80 g/ha or lower that were obtained by the aforementioned trial method.” for “plants.”
# [13] = tested on: Setaria viridis; experiment: as above; details: application rate 20 g/ha
# Procedure: as §1, with “plants. Tables A1 to A16 below show the efficacies of selected compounds of the general formula (I) according to tables I.1 to I.50 on various harmful plants and an application rate corresponding to 80 g/ha or lower that were obtained by the aforementioned trial method.” for “plants.”
# [14] = tested on: Echinochloa crus-galli; experiment: as above; details: application rate 20 g/ha
# Procedure: as §1, with “plants. Tables A1 to A16 below show the efficacies of selected compounds of the general formula (I) according to tables I.1 to I.50 on various harmful plants and an application rate corresponding to 80 g/ha or lower that were obtained by the aforementioned trial method.” for “plants.”
# [15] = tested on: Alopecurus myosuroides; experiment: as above; details: application rate 20 g/ha, scored visually after about 3 weeks vs untreated controls
# Procedure: as §1, with “plants. Tables A1 to A16 below show the efficacies of selected compounds of the general formula (I) according to tables I.1 to I.50 on various harmful plants and an application rate corresponding to 80 g/ha or lower that were obtained by the aforementioned trial method.” for “plants.”
# [16] = tested on: Matricaria inodora; experiment: as above; details: application rate 20 g/ha
# Procedure: as §1, with “plants. Tables A1 to A16 below show the efficacies of selected compounds of the general formula (I) according to tables I.1 to I.50 on various harmful plants and an application rate corresponding to 80 g/ha or lower that were obtained by the aforementioned trial method.” for “plants.”
# [17] = tested on: Lolium rigidum; experiment: as above; details: application rate 20 g/ha
# Procedure: as §1, with “plants. Tables A1 to A16 below show the efficacies of selected compounds of the general formula (I) according to tables I.1 to I.50 on various harmful plants and an application rate corresponding to 80 g/ha or lower that were obtained by the aforementioned trial method.” for “plants.”
Compound,Oryza sativa (Efficacy in %) ([1]; application rate 20 g/ha) [%],Triticum aestivum (Efficacy in %) ([2]; application rate 20 g/ha) [%],Zea mays (Efficacy in %) ([3]; application rate 20 g/ha) [%],Triticum aestivum (Efficacy in %) ([2]; application rate 5 g/ha) [%],Oryza sativa (Efficacy in %) ([1]; application rate 5 g/ha) [%],Zea mays (Efficacy in %) ([3]; application rate 5 g/ha) [%],Viola tricolor (Efficacy in %) [4] [%],Veronica persica (Efficacy in %) [5] [%],Amaranthus retroflexus (Efficacy in %) [6] [%],Abutilon theophrasti (Efficacy in %) [7] [%],Lolium rigidum (Efficacy in %) [8] [%],Digitaria sanguinalis (Efficacy in %) [9] [%],Polygonum convolvulus (Efficacy in %) [10] [%],Stellaria media (Efficacy in %) [11] [%],Pharbitis purpurea (Efficacy in %) [12] [%],Setaria viridis (Efficacy in %) [13] [%],Echinochloa crus-galli (Efficacy in %) [14] [%],Alopecurus myosuroides (Efficacy in %) [15] [%],Matricaria inodora (Efficacy in %) [16] [%],Lolium rigidum (Efficacy in %) [17] [%]
CC(Sc1cc(-n2c(=O)cc(C(F)(F)F)n(C)c2=O)c(F)cc1Cl)C(=O)OCCC(=O)OCc1ccccc1 (stereo not shown) [I.1-6],0,0,10,–,–,–,100,100,100,100,–,–,–,–,–,–,–,–,–,–
CC(Sc1cc(-n2c(=O)cc(C(F)(F)F)n(C)c2=O)c(F)cc1Cl)C(=O)OCCC(=O)OCC1CC1 (stereo not shown) [I.1-7],–,–,–,–,–,–,–,–,–,–,90,–,–,–,–,–,–,–,–,–
CCCOC(=O)CCOC(=O)C(CC)Sc1cc(-n2c(=O)cc(C(F)(F)F)n(C)c2=O)c(F)cc1Cl (stereo not shown) [I.2-8],0,0,0,–,–,–,100,100,100,100,–,100,100,100,100,100,100,–,100,–
CCC(Sc1cc(-n2c(=O)cc(C(F)(F)F)n(C)c2=O)c(F)cc1Cl)C(=O)OCC(C)(C)C(=O)OC (stereo not shown) [I.2-32],0,–,–,20,–,20,100,100,100,100,–,100,100,–,100,100,100,80,100,80
CCC(C)C(Sc1cc(-n2c(=O)cc(C(F)(F)F)n(C)c2=O)c(F)cc1Cl)C(=O)OCCC(=O)OC (stereo not shown) [I.5-2],–,–,–,20,–,–,100,100,100,100,–,80,100,100,100,100,100,80,100,–

# Second part, led by results:
Oryza sativa (Efficacy in %) ([1]; application rate 20 g/ha) [%],Triticum aestivum (Efficacy in %) ([2]; application rate 20 g/ha) [%],Zea mays (Efficacy in %) ([3]; application rate 20 g/ha) [%],Triticum aestivum (Efficacy in %) ([2]; application rate 5 g/ha) [%],Oryza sativa (Efficacy in %) ([1]; application rate 5 g/ha) [%],Zea mays (Efficacy in %) ([3]; application rate 5 g/ha) [%],Compound,Viola tricolor (Efficacy in %) [4] [%],Veronica persica (Efficacy in %) [5] [%],Amaranthus retroflexus (Efficacy in %) [6] [%],Abutilon theophrasti (Efficacy in %) [7] [%],Lolium rigidum (Efficacy in %) [8] [%],Digitaria sanguinalis (Efficacy in %) [9] [%],Polygonum convolvulus (Efficacy in %) [10] [%],Stellaria media (Efficacy in %) [11] [%],Pharbitis purpurea (Efficacy in %) [12] [%],Setaria viridis (Efficacy in %) [13] [%],Echinochloa crus-galli (Efficacy in %) [14] [%],Alopecurus myosuroides (Efficacy in %) [15] [%],Matricaria inodora (Efficacy in %) [16] [%],Lolium rigidum (Efficacy in %) [17] [%]
–,–,–,10,–,–,CCOC(=O)COC(=O)C(C)Sc1cc(-n2c(=O)cc(C(F)(F)F)n(C)c2=O)c(F)cc1Cl (stereo not shown) [I.1-43],100,100,100,100,–,100,100,80,100,100,100,80,100,–
–,–,–,–,10,–,CCNC(=O)CCOC(=O)C(C)Sc1cc(-n2c(=O)cc(C(F)(F)F)n(C)c2=O)c(F)cc1Cl (stereo not shown) [I.1-153],100,100,100,100,–,100,100,100,100,100,100,90,100,80
–,–,–,20,10,20,CC(Sc1cc(-n2c(=O)cc(C(F)(F)F)n(C)c2=O)c(F)cc1Cl)C(=O)OCCC(=O)N(C)C (stereo not shown) [I.1-231],100,100,100,100,–,100,100,100,100,100,100,–,100,–
20,–,–,–,–,–,CCN(C)C(=O)CCOC(=O)C(C)Sc1cc(-n2c(=O)cc(C(F)(F)F)n(C)c2=O)c(F)cc1Cl (stereo not shown) [I.1-233],100,100,100,100,–,100,100,100,100,100,100,90,100,90
–,–,–,20,–,–,CCOC(=O)CCOC(=O)C(Sc1cc(-n2c(=O)cc(C(F)(F)F)n(C)c2=O)c(F)cc1Cl)C(C)CC (stereo not shown) [I.5-3],100,100,100,100,–,80,100,100,100,100,100,80,100,–

# From patent publication US11274083B2, “Substituted thiophenyl uracils, salts thereof and the use thereof as herbicidal agents” (Syngenta Crop Protection AG, priority 2017, dated 2022)
